Test results from patent publication US9284292B2, “Sialochimeric compounds” (THERAPICON S.R.L., priority 2009, dated 2016).
pEC50: −log10 of the molar value.

System: influenza virus A/H1N1(H275Y) (A/Parma/38/2008)
Format: cell-based, influenza virus type A

For `CCOC(=O)C1=CC(OC(CC)CC)C(NC(C)=O)C(NC2(C(=O)O)CC(O)C(NC(C)=O)C(CNC34CC5CC(CC(C5)C3)C4)O2)C1` (centres unmarked) [THE 08/01, Amantadine-C7-Neu5Ac—C16H28N2O4], the pEC50 was 4.84 and the “antiviral activity in vitro versus influenza virus A/H1N1(H275Y)” value was “comparable to that determined versus A/H1N1”.
